We go through seven compounds from patent US5474984A, “Horseshoe crab amebocyte lysate factor G activation inhibitor” (priority 1988, dated 1995).

Test [1] has as its target T1, factor G fraction of LAL (Tachypleus tridentatus, UniProt Q27082).
T1 construct: Prepared from horseshoe crab, T. tridentatus; from tissue; host or cells: horseshoe crab amebocyte lysate (LAL), factor G fraction
T1 sequence (Q27082 20-673): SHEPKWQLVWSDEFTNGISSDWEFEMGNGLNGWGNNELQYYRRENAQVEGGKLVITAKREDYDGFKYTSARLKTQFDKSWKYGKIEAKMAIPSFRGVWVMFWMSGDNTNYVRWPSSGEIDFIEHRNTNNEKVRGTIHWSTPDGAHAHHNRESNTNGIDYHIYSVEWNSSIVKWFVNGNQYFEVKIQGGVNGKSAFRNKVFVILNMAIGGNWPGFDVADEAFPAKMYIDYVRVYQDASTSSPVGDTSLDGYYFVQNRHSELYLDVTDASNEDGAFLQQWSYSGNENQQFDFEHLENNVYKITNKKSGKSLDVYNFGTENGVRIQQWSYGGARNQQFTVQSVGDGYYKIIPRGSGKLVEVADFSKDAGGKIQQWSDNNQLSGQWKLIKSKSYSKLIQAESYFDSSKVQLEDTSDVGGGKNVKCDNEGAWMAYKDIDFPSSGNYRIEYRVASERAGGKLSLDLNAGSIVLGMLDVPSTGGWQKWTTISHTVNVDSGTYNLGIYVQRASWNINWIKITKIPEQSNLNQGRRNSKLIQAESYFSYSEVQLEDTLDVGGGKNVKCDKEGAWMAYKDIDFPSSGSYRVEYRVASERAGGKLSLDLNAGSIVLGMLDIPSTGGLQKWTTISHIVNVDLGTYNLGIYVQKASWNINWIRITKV
T1 sequence (Q27083 32-309 partner): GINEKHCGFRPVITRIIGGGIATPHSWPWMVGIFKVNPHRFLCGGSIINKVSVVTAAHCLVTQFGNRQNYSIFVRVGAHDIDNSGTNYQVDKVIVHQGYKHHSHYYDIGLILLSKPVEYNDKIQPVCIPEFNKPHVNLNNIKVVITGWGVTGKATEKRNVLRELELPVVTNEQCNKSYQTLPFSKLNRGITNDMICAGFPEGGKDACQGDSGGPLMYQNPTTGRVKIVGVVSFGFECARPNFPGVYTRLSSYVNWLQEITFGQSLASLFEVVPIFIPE
Nature of the test: Method of measuring the titer of the activity of a factor G activation inhibitor (GI). The format is biochemical, T. tridentatus. The conditions noted are these: 10 pg factor G activating substance (sample No. 106), 37° C. 30 minutes; 100% inhibition = 100 units. As for the experimental part: The factor G activation inhibiting titer was measured by the "method of measuring the titer of the activity of a factor G activation inhibitor" described below and expressed in units/mg.
Method of measuring the titer of the activity of a factor G activation inhibitor (sometimes abbreviated as GI):
Two hundred microliters of the reaction mixture contained the following materials. […]
The above reaction mixture was incubated at 37° C. for 30 minutes, and 0.5 ml each of 0.04% sodium nitrite (0.48M HCl solution), 0.3% ammonium sulfamate, and 0.07% N-(1-naphthyl)ethylenediamine dihydrochloride were successively added, and its color was changed by diazo coupling. The amount of pNA liberated was measured as the absorbance at 545 nm (A545).
The GI activity was calculated from the following equation. [formula]
The amount of GI which inhibited activation of factor G by GA under these conditions to an extent of 100% is defined as 100 units.
A sample which is water-insoluble is used after it is dissolved in 0.3M NaOH, and neutralized with an equal volume of 0.3M HCl.
A GPC fractionated pure sample of the sonicated product of Curdlan which was prepared in Preparation Example 5 (Table 2, sample No. 106 having a molecular weight of 216,000).
Prepared from horseshoe crab, T. tridentatus, inhabiting the coast of Japan in accordance with the method described in T. Obayashi et al., Clin. Chim. Acta, 149, 55-65 (1985).

Test [2] deals with factor G. Description: Operating mechanism experiment: inhibition of the factor G pathway with varied sequence of addition. The format is biochemical, horseshoe crab. The conditions noted are these: factor G activated by A before inhibitor. An excerpt: (§1) A reaction mixture of the following composition was used. Two hundred microliters of the reaction mixture contained 5 micrograms of a factor G activation inhibitor (laminariheptaose; sample No. 10; abbreviated as I), 3 pg of a factor G activating substance (GPC fraction of sonicated Curdlan; sample No. 106; abbreviated as A), 20 microliters of a factor G fraction (abbreviated as G) and 30 microliters of a proclotting enzyme fraction (abbreviated as P) prepared from LAL by the method described in T. Obayashi et al., Clin. Chim. Acta, 149, 55-65 (1985), 20 μmoles of Tris-HCl buffer (pH 8.0), 20 μmoles of MgCl2 and 0.13 μmole of a chromogenic substrate Boc-Leu-Gly-Arg-pNA (abbreviated as S).
(§2) In each of Runs 1 to 5, the sequence of adding the ingredients and the incubating conditions were varied, and the degree of inhibition of the factor G pathway was measured and determined in comparison with a control in which no inhibitor was added.

Test [3] addresses T2, factor G (Tachypleus tridentatus, UniProt Q27082).
T2 construct: prepared from LAL by the method described in T. Obayashi et al; from tissue; host or cells: horseshoe crab amebocyte lysate (LAL), factor G fraction
T2 sequence (Q27082 20-673): T1 sequence (Q27082 20-673)
T2 sequence (Q27083 32-309 partner): T1 sequence (Q27083 32-309 partner)
Described as above. The format is biochemical, horseshoe crab. The conditions noted are these: 5 micrograms inhibitor.
Description: as §1, §2

The structures appear in SMILES notation. Where only a bound is given, the exact number is not on record here.

Regarding `OC[C@H]1O[C@@H](O[C@@H]2[C@@H](O)[C@H](O[C@@H]3[C@@H](O)[C@H](O[C@@H]4[C@@H](O)[C@H](O[C@H]5[C@H](O)[C@@H](CO)OC(O)[C@@H]5O)O[C@H](CO)[C@H]4O)O[C@H](CO)[C@H]3O)O[C@H](CO)[C@H]2O)[C@H](O)[C@@H](O)[C@@H]1O` (stereo partly drawn) [compound 8, Laminaripentaose], the “Factor G activation inhibiting titer” value in test [1] is 39,800 units/mg. In the case of `OC[C@H]1O[C@@H](O[C@H]2[C@H](O)[C@@H](CO)OC(O)[C@@H]2O)[C@H](O)[C@@H](O)[C@@H]1O` (stereo partly drawn) [compound 5, Laminasiribose], the “Factor G activation inhibiting titer” value in test [1] is given as 214 units/mg. With `OC[C@H]1O[C@@H](O[C@@H]2[C@@H](O)[C@H](O[C@H]3[C@H](O)[C@@H](CO)OC(O)[C@@H]3O)O[C@H](CO)[C@H]2O)[C@H](O)[C@@H](O)[C@@H]1O` (stereo partly drawn) [compound 6, Laminaritriose], the “Factor G activation inhibiting titer” value in test [1] was 4,670 units/mg. Take `OCC1OC(OC2C(O)C(CO)OC(OC3C(O)C(CO)OC(OC4C(O)C(CO)OC(OC5C(O)C(CO)OC(OC6C(O)C(CO)OC(OC7C(O)C(O)OC(CO)C7O)C6O)C5O)C4O)C3O)C2O)C(O)C(O)C1O` (stereo not drawn) [compound 10, Laminariheptaose]: the “Inhibition rate (%) to the control” value in test [2] (Run 4 (sequence drawing 14)) was found to be 1.7%; in test [2] (Run 5 (sequence drawing 15)) it was 0%; in test [3] (Run 1 (sequence of addition drawing 11), 3 pg activating substance sample No. 106), 100%; in test [3] (Run 2 (sequence drawing 12), 3 pg activating substance), 100%; in test [3] (Run 3 (sequence drawing 13), 3 pg activating substance) it was 100%. Moreover, the “Factor G activation inhibiting titer” value in test [1] is 103,000 units/mg. Consider `OC[C@H]1O[C@@H](O[C@@H]2[C@@H](O)[C@H](O[C@@H]3[C@@H](O)[C@H](O[C@H]4[C@H](O)[C@@H](CO)OC(O)[C@@H]4O)O[C@H](CO)[C@H]3O)O[C@H](CO)[C@H]2O)[C@H](O)[C@@H](O)[C@@H]1O` (stereo partly drawn) [compound 7, Laminaritetraose], for which the “Factor G activation inhibiting titer” value in test [1] is recorded as 20,000 units/mg.

Take `OC[C@H]1O[C@@H](O[C@@H]2[C@@H](O)[C@H](O[C@@H]3[C@@H](O)[C@H](O[C@@H]4[C@@H](O)[C@H](O[C@@H]5[C@@H](O)[C@H](O[C@H]6[C@H](O)[C@@H](CO)OC(O)[C@@H]6O)O[C@H](CO)[C@H]5O)O[C@H](CO)[C@H]4O)O[C@H](CO)[C@H]3O)O[C@H](CO)[C@H]2O)[C@H](O)[C@@H](O)[C@@H]1O` (stereo partly drawn) [compound 9, Laminarihexaose]: the “Factor G activation inhibiting titer” value in test [1] is listed as 55,000 units/mg. Still for that read-out and setting: the figure for `OC[C@H]1OC(O)[C@H](O)[C@@H](O)[C@@H]1O` (stereo partly drawn) [compound 108, Glucose, reference compound] is less than 100 units/mg.
